Patent US8772335B2, “Adamantyl derivatives as therapeutic agents” (Women & Infants' Hospital of Rhode Island, priority 2011, dated 2014)

Tests used:
Type in all cases: cell-based
[1] = test system: immortalized TCL-1 trophoblasts; assay: MTS cell viability, immortalized trophoblasts (control cells); settings: drug concentrations of 40 μM
Procedure: Cancer cells derived from neuroblastoma (SMSKCNR), ovarian (SKOV-3), prostate (PC-3), cervical (HeLa), skin (a431), immortalized lung fibroblasts (MRCS) and immortalized trophoblasts (TCL-1) were seeded (5000-10000) in a 96 well plate in complete medium as recommended by ATCC and allowed to adhere overnight. Medium was replaced with fresh complete medium containing various concentrations of compound (2) and (3). The cells were incubated under standard humidified incubator (5% CO2) for 48 hours. The medium was replaced again with 100 μL of complete RPMI medium containing MTS reagent (Cell titre 96 aqueous one solution cell proliferation assay, Promega, Madison, Wis.) and incubated for 1-6 hours until violet farmazon color developed (the optical density (OD) of the color was read with an ELISA plate reader at 492 nm wavelength). The OD values of the treatment wells were plotted against vehicle OD as 100% cell viablity using MS excel software.
Cancer cells derived from neuroblastoma (SMSKCNR), ovarian (SKOV-3), prostate (PC-3), endometrial (ECC-1, AN3CA, KLE), breast (MCF-7) and trophoblasts (TCL-1) were seeded (5000-10000 cells/well) in a 96 well plate in complete medium as recommended by ATCC and allowed to adhere overnight. The medium was replaced with fresh complete medium containing ascorbic acid (500 μM) and added various concentrations of AC-AM. […]

SKOV-3 cells = assay: Cell cycle progression of SKOV-3 cells (propidium iodide, FACS); design: G1 / Apoptosis: unit not given here; settings: for G1 / G2/M / S / Apoptosis: SKOV-3 cells, 10 μM; for G1 / G2/M / S: cell population distribution by FACS; for Apoptosis: sub-G1 population by FACS
Procedure: SKOV-3 cells (˜1 million) were seeded in complete DMEM media in 10 cm^2 dishes and allowed to adhere overnight. Media was removed and supplemented with AMITC and AC-AM (10 μM) or vehicle and cells were harvested at 4, 12, 18, 32, and 48 hours. The cells were washed and fixed with cold 70% ethanol/H2O. After 1 hour, ethanol was removed and 500 μL of propidinium iodide (PI) (1 mg/10 mL) was added to each tube containing cells. The distribution of the cell population in various phases of cell-cycle was analyzed using FACS. 10,000 events were chosen from each sample.

[2] = test system: ovarian and endometrial cancer cells; assay: MTS viability with ascorbic acid co-treatment (role of ROS)
Procedure: Cancer cells derived from neuroblastoma (SMSKCNR), ovarian (SKOV-3), prostate (PC-3), endometrial (ECC-1, AN3CA, KLE), breast (MCF-7) and trophoblasts (TCL-1) were seeded (5000-10000 cells/well) in a 96 well plate in complete medium as recommended by ATCC and allowed to adhere overnight. The medium was replaced with fresh complete medium containing ascorbic acid (500 μM) and added various concentrations of AC-AM. The cells were incubated under standard humidified incubator (5% CO2) for 24 hours. The medium was replaced again with 100 μL of complete RPMI medium containing MTS reagent (Cell titre 96 aqueous one solution cell proliferation assay, Promega, Madison, Wis.) and incubated for 1-6 hours until violet farmazon color developed (the optical density of the color was read with an ELISA plate reader at 492 nm wavelength). The OD values of the treatment wells were plotted against vehicle OD set at 100% cell viability using MS excel software.

SMILES | G1 (SKOV-3 cells; 4 hr) | G2/M (SKOV-3 cells; 4 hr) | S (SKOV-3 cells; 4 hr) | Apoptosis (SKOV-3 cells; 4 hr) | G1 (SKOV-3 cells; 12 hr) | G2/M (SKOV-3 cells; 12 hr) | S (SKOV-3 cells; 12 hr) | Apoptosis (SKOV-3 cells; 12 hr) | G1 (SKOV-3 cells; 18 hr) | G2/M (SKOV-3 cells; 18 hr) | S (SKOV-3 cells; 18 hr) | Apoptosis (SKOV-3 cells; 18 hr) | G1 (SKOV-3 cells; 32 hr) | G2/M (SKOV-3 cells; 32 hr) | S (SKOV-3 cells; 32 hr) | Apoptosis (SKOV-3 cells; 32 hr) | G1 (SKOV-3 cells; 48 hr) | G2/M (SKOV-3 cells; 48 hr) | S (SKOV-3 cells; 48 hr) | Apoptosis (SKOV-3 cells; 48 hr) | other results
S=C=NCC12CC3CC(CC(C3)C1)C2 [AMITC, adamantyl methyl isothiocyanate] | 63 | 11 | 25.30 | 7.24 | 46.18 | 26.06 | 27.27 | 8.52 | 39.19 | 29.13 | 31.32 | 14.83 | 48 | 20.12 | 31.86 | 16.07 | 43 | 37.44 | 19.36 | 19.46 | viability of immortalized TCL-1 trophoblasts [1]: not significantly affected; effect on cell cycle phases (in words) (SKOV-3 cells; SKOV-3 ovarian cancer cells): arrest ovarian cancer cells in G2/M phase
CC(=O)NC(CSC(=S)NCC12CC3CC(CC(C3)C1)C2)C(=O)O (stereo not shown) [AC-AM] | 63 | 10.40 | 25.70 | 4.81 | 45.15 | 27.17 | 27.67 | 7.73 | 37.37 | 30.85 | 31.78 | 13.33 | 37.78 | 28.89 | 33.34 | 16.29 | 48.48 | 17.90 | 33.62 | 16.62 | effect of antioxidant ascorbic acid on cytotoxicity [2]: blocked
